Laboratory results published in the NIST ThermoML archive (doi:10.1016/j.jct.2008.07.012).
± gives the expanded uncertainty stated by the source.

Test: molar enthalpy of vaporization or sublimation
Conditions: 298.15 K; Crystal; Calvet Calorimetry

Structure (SMILES) | molar enthalpy [kcal/mol]
O=[N+]([O-])c1ccccc1Cl [1-chloro-2-nitrobenzene] | 19.3 ± 0.717
O=[N+]([O-])c1cccc(Cl)c1 [1-chloro-3-nitrobenzene] | 19.7 ± 0.717
O=[N+]([O-])c1ccc(Cl)cc1 [1-chloro-4-nitrobenzene] | 18.2 ± 1
